Measured values from paper PMC4904262 (ACS Medicinal Chemistry Letters, 2016).

Assays:
[1] = target: RSK3 (Homo sapiens, UniProt Q15349); conditions: 1 µM, ATP at Km
[2] = target: SGK2 (Homo sapiens, UniProt Q9HBY8); conditions: 1 µM, ATP at Km
[3] = target: ULK3 (Homo sapiens, UniProt Q6PHR2); conditions: 1 µM, ATP at Km
[4] = target: SAPK3 (Homo sapiens, UniProt P53778); conditions: 1 µM, ATP at Km
[5] = target: PI3K GAMMA (Homo sapiens, UniProt P48736); conditions: 1 µM, ATP at Km
[6] = target: MER (Homo sapiens, UniProt Q12866); conditions: 1 µM, ATP at Km
[7] = target: PKBBETA (Homo sapiens, UniProt P31751); conditions: 1 µM, ATP at Km
[8] = target: MRCKBETA (Homo sapiens, UniProt Q9Y5S2); conditions: 1 µM, ATP at Km
[9] = target: YES (Homo sapiens, UniProt P07947); conditions: 1 µM, ATP at Km
[10] = target: LOK (Homo sapiens, UniProt O94804); conditions: 1 µM, ATP at Km
[11] = target: LCK (Homo sapiens, UniProt P06239); conditions: LCK (first listing, page 9); 1 µM; ATP at Km
[12] = target: TBK1 (Homo sapiens, UniProt Q9UHD2); conditions: 1 µM, ATP at Km
[13] = target: PKG1ALPHA (Homo sapiens, UniProt Q13976); conditions: 1 µM, ATP at Km
[14] = target: NEK2 (Homo sapiens, UniProt P51955); conditions: 1 µM, ATP at Km
[15] = target: CDK5/P35 (Homo sapiens, UniProt Q00535); conditions: 1 µM, ATP at Km
[16] = target: CDK1/CYCLINB (Homo sapiens, UniProt P06493); conditions: 1 µM, ATP at Km
[17] = target: ARK5 (Homo sapiens, UniProt O60285); conditions: 1 µM, ATP at Km
ARK5, sequence (O60285 whole entry): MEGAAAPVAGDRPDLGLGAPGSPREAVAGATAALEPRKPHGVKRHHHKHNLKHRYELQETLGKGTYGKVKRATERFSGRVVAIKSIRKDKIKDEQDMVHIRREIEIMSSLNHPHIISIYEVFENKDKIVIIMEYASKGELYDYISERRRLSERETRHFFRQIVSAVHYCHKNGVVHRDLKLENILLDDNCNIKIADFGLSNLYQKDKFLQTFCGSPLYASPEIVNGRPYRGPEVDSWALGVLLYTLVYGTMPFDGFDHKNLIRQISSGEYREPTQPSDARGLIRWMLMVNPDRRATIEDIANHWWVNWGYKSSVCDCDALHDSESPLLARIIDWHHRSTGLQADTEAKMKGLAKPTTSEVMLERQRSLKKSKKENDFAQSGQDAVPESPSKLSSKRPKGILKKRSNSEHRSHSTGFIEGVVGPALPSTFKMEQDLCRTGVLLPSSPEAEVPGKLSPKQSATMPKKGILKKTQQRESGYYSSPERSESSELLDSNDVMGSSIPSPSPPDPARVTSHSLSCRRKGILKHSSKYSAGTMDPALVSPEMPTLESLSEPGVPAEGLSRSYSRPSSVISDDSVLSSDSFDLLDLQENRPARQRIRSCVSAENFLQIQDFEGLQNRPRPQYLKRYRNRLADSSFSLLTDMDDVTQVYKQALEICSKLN

[18] = target: FAK (Homo sapiens, UniProt Q05397); conditions: 1 µM, ATP at Km
FAK, sequence (Q05397 whole entry): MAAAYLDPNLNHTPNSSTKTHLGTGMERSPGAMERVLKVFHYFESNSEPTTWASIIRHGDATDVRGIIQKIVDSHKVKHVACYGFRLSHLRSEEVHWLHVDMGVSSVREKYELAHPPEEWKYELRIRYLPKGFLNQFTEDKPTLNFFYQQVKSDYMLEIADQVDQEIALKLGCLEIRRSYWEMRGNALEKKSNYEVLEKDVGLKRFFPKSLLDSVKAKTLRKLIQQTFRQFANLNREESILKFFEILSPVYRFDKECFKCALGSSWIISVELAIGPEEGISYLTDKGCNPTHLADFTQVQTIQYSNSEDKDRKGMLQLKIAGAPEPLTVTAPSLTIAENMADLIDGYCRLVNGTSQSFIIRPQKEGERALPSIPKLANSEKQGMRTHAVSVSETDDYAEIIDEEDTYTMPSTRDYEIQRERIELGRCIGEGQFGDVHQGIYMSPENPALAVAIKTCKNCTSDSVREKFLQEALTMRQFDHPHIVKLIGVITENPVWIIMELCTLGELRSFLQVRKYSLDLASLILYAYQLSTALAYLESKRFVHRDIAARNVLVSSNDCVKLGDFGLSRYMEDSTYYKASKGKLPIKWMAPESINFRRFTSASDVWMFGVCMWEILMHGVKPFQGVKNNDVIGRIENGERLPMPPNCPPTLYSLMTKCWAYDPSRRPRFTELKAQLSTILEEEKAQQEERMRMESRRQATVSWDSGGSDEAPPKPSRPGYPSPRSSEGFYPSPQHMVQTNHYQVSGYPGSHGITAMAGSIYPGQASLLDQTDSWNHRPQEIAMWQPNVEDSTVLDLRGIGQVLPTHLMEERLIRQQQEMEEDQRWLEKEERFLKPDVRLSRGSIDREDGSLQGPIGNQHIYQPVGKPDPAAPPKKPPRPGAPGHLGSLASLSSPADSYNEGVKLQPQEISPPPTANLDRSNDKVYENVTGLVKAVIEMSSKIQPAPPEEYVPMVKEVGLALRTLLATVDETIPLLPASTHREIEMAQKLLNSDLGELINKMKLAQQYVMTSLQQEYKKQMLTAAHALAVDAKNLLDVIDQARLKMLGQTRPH

[19] = target: LYN (Homo sapiens, UniProt P07948); conditions: 1 µM, ATP at Km
[20] = target: JAK3 (Homo sapiens, UniProt P52333); conditions: 1 µM, ATP at Km
[21] = target: PAK6 (Homo sapiens, UniProt Q9NQU5); conditions: 1 µM, ATP at Km
[22] = target: DAPK2 (Homo sapiens, UniProt Q9UIK4); conditions: 1 µM, ATP at Km
[23] = target: FGFR4 (Homo sapiens, UniProt P22455); conditions: 1 µM, ATP at Km
[24] = target: PLK1 (Homo sapiens, UniProt P53350); conditions: 1 µM, ATP at Km
[25] = target: PASK (Homo sapiens, UniProt Q96RG2); conditions: 1 µM, ATP at Km
[26] = target: EPHA7 (Homo sapiens, UniProt Q15375); conditions: 1 µM, ATP at Km
[27] = target: TRKB (Homo sapiens, UniProt Q16620); conditions: 1 µM, ATP at Km
[28] = target: ASK1 (Homo sapiens, UniProt Q99683); conditions: 1 µM, ATP at Km
[29] = target: MLK1 (Homo sapiens, UniProt P80192); conditions: 1 µM, ATP at Km
[30] = target: PTK5 (Homo sapiens, UniProt P42685); conditions: 1 µM, ATP at Km
[31] = target: STK33 (Homo sapiens, UniProt Q9BYT3); conditions: 1 µM, ATP at Km
[32] = target: SRPK1 (Homo sapiens, UniProt Q96SB4); conditions: 1 µM, ATP at Km
[33] = target: ROCK-II (Homo sapiens, UniProt O75116); conditions: 1 µM, ATP at Km
[34] = target: FYN (Homo sapiens, UniProt P06241); conditions: 1 µM, ATP at Km
[35] = target: NEK6 (Homo sapiens, UniProt Q9HC98); conditions: 1 µM, ATP at Km
NEK6, sequence (Q9HC98 whole entry): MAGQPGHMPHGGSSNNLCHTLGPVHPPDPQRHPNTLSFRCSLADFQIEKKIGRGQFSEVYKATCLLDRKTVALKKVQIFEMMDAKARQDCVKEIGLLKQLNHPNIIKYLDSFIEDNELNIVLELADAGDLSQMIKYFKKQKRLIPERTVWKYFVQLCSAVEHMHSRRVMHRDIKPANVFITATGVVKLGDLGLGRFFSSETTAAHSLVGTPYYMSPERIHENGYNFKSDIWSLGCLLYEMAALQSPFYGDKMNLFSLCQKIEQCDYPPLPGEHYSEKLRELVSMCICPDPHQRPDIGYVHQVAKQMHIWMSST

[36] = target: MRCKALPHA (Homo sapiens, UniProt Q5VT25); conditions: 1 µM, ATP at Km
[37] = target: TLK2 (Homo sapiens, UniProt Q86UE8); conditions: 1 µM, ATP at Km
[38] = target: IKKBETA (Homo sapiens, UniProt O14920); conditions: 1 µM, ATP at Km
[39] = target: PRKAA1 (Homo sapiens, UniProt Q13131); conditions: 1 µM, ATP at Km
[40] = target: TSSK2 (Homo sapiens, UniProt Q96PF2); conditions: 1 µM, ATP at Km
[41] = target: PDK1 (Homo sapiens, UniProt O15530); conditions: 1 µM, ATP at Km
[42] = target: GSK3ALPHA (Homo sapiens, UniProt P49840); conditions: 1 µM, ATP at Km
GSK3ALPHA, sequence (P49840 whole entry): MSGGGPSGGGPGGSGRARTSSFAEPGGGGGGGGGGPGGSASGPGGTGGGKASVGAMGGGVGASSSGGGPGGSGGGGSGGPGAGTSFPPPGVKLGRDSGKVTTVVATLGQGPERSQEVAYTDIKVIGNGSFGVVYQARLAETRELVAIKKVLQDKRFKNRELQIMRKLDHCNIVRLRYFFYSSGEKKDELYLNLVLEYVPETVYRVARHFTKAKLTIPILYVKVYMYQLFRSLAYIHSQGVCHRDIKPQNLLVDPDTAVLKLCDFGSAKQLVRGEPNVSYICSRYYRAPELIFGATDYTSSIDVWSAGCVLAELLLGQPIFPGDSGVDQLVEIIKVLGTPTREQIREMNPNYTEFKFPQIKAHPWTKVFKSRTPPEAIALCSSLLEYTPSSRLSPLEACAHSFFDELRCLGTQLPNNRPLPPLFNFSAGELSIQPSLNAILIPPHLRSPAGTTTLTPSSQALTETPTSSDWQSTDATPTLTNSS

[43] = target: FLT1 (Homo sapiens, UniProt P17948); conditions: 1 µM, ATP at Km
FLT1, sequence (P17948 27-1338): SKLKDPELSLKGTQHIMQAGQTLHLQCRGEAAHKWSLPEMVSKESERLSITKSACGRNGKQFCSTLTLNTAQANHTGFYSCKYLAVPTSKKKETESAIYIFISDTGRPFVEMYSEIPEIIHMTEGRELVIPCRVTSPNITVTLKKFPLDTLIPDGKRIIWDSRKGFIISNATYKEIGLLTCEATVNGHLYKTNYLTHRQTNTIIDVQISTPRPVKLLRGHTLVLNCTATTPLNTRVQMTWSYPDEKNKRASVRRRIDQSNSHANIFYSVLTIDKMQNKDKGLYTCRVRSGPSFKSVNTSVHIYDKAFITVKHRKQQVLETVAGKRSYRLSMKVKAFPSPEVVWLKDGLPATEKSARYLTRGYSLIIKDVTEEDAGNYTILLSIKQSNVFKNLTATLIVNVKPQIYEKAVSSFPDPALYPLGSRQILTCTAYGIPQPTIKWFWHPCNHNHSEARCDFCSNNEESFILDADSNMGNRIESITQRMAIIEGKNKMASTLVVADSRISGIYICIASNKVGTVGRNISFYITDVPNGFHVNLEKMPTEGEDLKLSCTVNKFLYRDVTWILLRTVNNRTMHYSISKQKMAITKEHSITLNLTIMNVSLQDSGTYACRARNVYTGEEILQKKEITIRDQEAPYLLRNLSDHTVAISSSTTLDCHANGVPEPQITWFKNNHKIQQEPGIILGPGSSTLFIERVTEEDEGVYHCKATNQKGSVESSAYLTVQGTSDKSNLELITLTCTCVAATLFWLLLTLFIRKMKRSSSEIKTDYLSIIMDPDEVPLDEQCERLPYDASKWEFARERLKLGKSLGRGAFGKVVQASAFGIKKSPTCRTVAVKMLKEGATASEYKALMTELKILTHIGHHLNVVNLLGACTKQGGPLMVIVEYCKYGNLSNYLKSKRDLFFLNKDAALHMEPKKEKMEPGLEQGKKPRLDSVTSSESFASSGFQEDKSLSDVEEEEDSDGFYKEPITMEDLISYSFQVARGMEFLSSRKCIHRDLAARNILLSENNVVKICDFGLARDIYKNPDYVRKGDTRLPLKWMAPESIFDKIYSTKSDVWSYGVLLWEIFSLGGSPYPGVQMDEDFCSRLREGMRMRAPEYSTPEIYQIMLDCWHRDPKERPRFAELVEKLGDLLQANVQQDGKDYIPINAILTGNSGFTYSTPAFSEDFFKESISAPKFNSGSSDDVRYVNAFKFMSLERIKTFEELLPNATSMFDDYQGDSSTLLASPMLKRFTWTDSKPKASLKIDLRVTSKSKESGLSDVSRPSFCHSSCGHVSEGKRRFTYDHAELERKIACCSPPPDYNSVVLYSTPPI

[44] = target: RET (Homo sapiens, UniProt P07949); conditions: 1 µM, ATP at Km
[45] = target: WNK3 (Homo sapiens, UniProt Q9BYP7); conditions: 1 µM, ATP at Km

RSK3, sequence (Q15349 whole entry): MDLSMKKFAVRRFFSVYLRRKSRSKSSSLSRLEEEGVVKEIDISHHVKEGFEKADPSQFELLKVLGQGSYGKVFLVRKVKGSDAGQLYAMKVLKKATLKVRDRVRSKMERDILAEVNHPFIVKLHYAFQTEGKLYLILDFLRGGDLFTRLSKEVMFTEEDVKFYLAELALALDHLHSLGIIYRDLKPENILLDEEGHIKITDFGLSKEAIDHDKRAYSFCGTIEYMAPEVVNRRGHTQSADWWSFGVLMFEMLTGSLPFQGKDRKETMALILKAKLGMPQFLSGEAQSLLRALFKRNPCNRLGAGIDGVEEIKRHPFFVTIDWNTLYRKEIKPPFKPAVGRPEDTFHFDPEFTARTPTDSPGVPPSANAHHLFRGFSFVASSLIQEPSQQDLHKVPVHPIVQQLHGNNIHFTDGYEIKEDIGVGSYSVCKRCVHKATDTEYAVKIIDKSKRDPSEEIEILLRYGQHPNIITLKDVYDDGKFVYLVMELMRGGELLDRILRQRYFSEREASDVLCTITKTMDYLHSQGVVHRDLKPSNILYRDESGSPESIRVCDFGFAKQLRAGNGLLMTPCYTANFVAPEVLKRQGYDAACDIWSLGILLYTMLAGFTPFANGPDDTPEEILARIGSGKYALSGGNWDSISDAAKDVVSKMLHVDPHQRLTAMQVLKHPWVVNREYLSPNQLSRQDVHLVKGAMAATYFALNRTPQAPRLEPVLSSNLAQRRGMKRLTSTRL
ULK3, sequence (Q6PHR2 whole entry): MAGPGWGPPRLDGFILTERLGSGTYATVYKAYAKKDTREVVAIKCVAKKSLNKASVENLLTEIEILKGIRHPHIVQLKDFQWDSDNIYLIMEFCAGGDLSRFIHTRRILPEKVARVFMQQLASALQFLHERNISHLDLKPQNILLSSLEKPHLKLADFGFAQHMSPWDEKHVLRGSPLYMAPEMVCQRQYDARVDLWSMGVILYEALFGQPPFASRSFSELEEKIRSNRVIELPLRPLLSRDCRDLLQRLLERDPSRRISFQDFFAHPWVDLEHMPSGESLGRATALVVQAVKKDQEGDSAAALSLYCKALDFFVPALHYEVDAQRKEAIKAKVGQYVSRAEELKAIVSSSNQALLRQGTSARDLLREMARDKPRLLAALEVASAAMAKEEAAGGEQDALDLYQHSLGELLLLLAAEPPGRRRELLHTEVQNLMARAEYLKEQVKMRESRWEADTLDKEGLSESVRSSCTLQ

Question: With COC1CN(C(=O)c2ccc3c(N)ncc(-c4ccc(-c5cnn(C)c5)cc4)c3n2)C1 [Compound 51] as the molecule, how does the percentage effect [1] read?
Answer: 4%

Question: And the percentage effect [2]?
Answer: -46%

Question: What about the percentage effect [3] of the same molecule?
Answer: 2%

Question: What about the percentage effect [4] of the same molecule?
Answer: -11%

Question: And the percentage effect [5]?
Answer: -18%

Question: And the percentage effect [6]?
Answer: -3%

Question: And the percentage effect [7]?
Answer: 13%

Question: And the percentage effect [8]?
Answer: -4%

Question: What about the percentage effect [9] of the same molecule?
Answer: -22%

Question: And the percentage effect [10]?
Answer: 3%

Question: What about the percentage effect [11] of the same molecule?
Answer: 2%

Question: And the percentage effect [12]?
Answer: -23%

Question: And the percentage effect [13]?
Answer: 0%

Question: What about the percentage effect [14] of the same molecule?
Answer: -5%

Question: What about the percentage effect [15] of the same molecule?
Answer: 8%

Question: What about the percentage effect [16] of the same molecule?
Answer: 1%

Question: And the percentage effect [17]?
Answer: 2%

Question: And the percentage effect [18]?
Answer: 3%

Question: And the percentage effect [19]?
Answer: -1%

Question: And the percentage effect [20]?
Answer: 2%

Question: And the percentage effect [21]?
Answer: -12%

Question: And the percentage effect [22]?
Answer: 5%

Question: What about the percentage effect [23] of the same molecule?
Answer: 3%

Question: What about the percentage effect [24] of the same molecule?
Answer: 1%

Question: And the percentage effect [25]?
Answer: -8%

Question: What about the percentage effect [26] of the same molecule?
Answer: -4%

Question: What about the percentage effect [27] of the same molecule?
Answer: -23%

Question: What about the percentage effect [28] of the same molecule?
Answer: 0%

Question: And the percentage effect [29]?
Answer: -3%

Question: And the percentage effect [30]?
Answer: -8%

Question: What about the percentage effect [31] of the same molecule?
Answer: -15%

Question: What about the percentage effect [32] of the same molecule?
Answer: 3%

Question: What about the percentage effect [33] of the same molecule?
Answer: -2%

Question: What about the percentage effect [34] of the same molecule?
Answer: 1%

Question: What about the percentage effect [35] of the same molecule?
Answer: -2%

Question: What about the percentage effect [36] of the same molecule?
Answer: 2%

Question: What about the percentage effect [37] of the same molecule?
Answer: 2%

Question: What about the percentage effect [38] of the same molecule?
Answer: -14%

Question: And the percentage effect [39]?
Answer: -1%

Question: And the percentage effect [40]?
Answer: 15%

Question: And the percentage effect [41]?
Answer: -8%

Question: What about the percentage effect [42] of the same molecule?
Answer: -17%

Question: What about the percentage effect [43] of the same molecule?
Answer: -9%

Question: And the percentage effect [44]?
Answer: -2%

Question: And the percentage effect [45]?
Answer: -9%

Question: COC1CN(C(=O)c2ccc3c(N)ncc(-c4ccc(-c5cnn(C)c5)cc4)c3c2)C1 [Compound 59] was tested. Which percentage effect [1] did it give?
Answer: 4%

Question: And the percentage effect [2]?
Answer: 38%

Question: What about the percentage effect [3] of the same molecule?
Answer: 8%

Question: And the percentage effect [4]?
Answer: -11%

Question: And the percentage effect [5]?
Answer: -7%

Question: What about the percentage effect [6] of the same molecule?
Answer: -4%

Question: And the percentage effect [7]?
Answer: -24%

Question: What about the percentage effect [8] of the same molecule?
Answer: 13%

Question: What about the percentage effect [9] of the same molecule?
Answer: -18%

Question: What about the percentage effect [10] of the same molecule?
Answer: 1%

Question: What about the percentage effect [11] of the same molecule?
Answer: -18%

Question: What about the percentage effect [12] of the same molecule?
Answer: 17%

Question: What about the percentage effect [13] of the same molecule?
Answer: 17%

Question: What about the percentage effect [14] of the same molecule?
Answer: -9%

Question: What about the percentage effect [15] of the same molecule?
Answer: -2%

Question: What about the percentage effect [16] of the same molecule?
Answer: -5%

Question: And the percentage effect [17]?
Answer: -14%

Question: And the percentage effect [18]?
Answer: -18%

Question: What about the percentage effect [19] of the same molecule?
Answer: 0%

Question: What about the percentage effect [20] of the same molecule?
Answer: 14%

Question: And the percentage effect [21]?
Answer: 25%

Question: And the percentage effect [22]?
Answer: 12%

Question: And the percentage effect [23]?
Answer: 14%

Question: What about the percentage effect [24] of the same molecule?
Answer: -6%

Question: And the percentage effect [25]?
Answer: -4%

Question: And the percentage effect [26]?
Answer: 1%

Question: And the percentage effect [27]?
Answer: 0%

Question: What about the percentage effect [28] of the same molecule?
Answer: -10%

Question: What about the percentage effect [29] of the same molecule?
Answer: -30%

Question: And the percentage effect [30]?
Answer: -4%

Question: And the percentage effect [31]?
Answer: 1%

Question: What about the percentage effect [32] of the same molecule?
Answer: -24%

Question: And the percentage effect [33]?
Answer: -12%

Question: What about the percentage effect [34] of the same molecule?
Answer: 8%

Question: What about the percentage effect [35] of the same molecule?
Answer: -34%

Question: What about the percentage effect [36] of the same molecule?
Answer: 0%

Question: And the percentage effect [37]?
Answer: -5%

Question: And the percentage effect [38]?
Answer: 8%

Question: And the percentage effect [39]?
Answer: -3%

Question: And the percentage effect [40]?
Answer: -26%

Question: What about the percentage effect [41] of the same molecule?
Answer: -10%

Question: What about the percentage effect [42] of the same molecule?
Answer: -29%

Question: And the percentage effect [43]?
Answer: -15%

Question: What about the percentage effect [44] of the same molecule?
Answer: 6%

Question: And the percentage effect [45]?
Answer: 4%
